{"source": "patent US11746087B1", "about": "“C4-carboxylic acid-substituted tryptamine derivatives and methods of using” (priority 2022, dated 2023)", "key": {"[1]": {"assay": "Mouse PK study (IV and PO), plasma parent compound and psilocin by LC-MS/MS", "format": "in vivo", "settings": "male, C57Bl/6, mouse, plasma; for MRT inf / AUC(0-t) / Cmax / Tmax / AUC(0-inf) / half-life: C(I) in plasma; for MRT inf: read-out: MRT0-inf; for AUC(0-t): read-out: AUC0-tlast; for Cmax: read-out: Cmax; for Tmax: read-out: tmax; for AUC(0-inf): read-out: AUC0-inf; for half-life: read-out: Apparent t1/2 (converted)", "from_the_text": "Briefly, the procedure was as follows. […] 19, 2022."}, "HTR3A (5-HT3A)": {"target": "T1, HTR3A (5-HT3A) (Homo sapiens, UniProt P46098)", "T1 sequence (P46098 24-478)": "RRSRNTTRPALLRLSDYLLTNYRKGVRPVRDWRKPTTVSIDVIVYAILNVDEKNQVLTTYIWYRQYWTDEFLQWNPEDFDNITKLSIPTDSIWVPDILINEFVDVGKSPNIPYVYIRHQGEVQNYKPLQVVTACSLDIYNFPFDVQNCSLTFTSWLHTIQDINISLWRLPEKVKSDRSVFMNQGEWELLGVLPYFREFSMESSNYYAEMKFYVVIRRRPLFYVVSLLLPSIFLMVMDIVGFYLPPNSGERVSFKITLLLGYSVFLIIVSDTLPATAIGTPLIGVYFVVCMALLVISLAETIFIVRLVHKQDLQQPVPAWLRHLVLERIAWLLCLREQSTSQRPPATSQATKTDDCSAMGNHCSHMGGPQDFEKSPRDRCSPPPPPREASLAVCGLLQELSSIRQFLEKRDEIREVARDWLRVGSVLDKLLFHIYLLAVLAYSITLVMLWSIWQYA", "assay": "Ion channel assay (FLIPR membrane potential), opener", "format": "cell-based"}, "DRD2S": {"target": "DRD2S (Homo sapiens, UniProt P14416)", "sequence (P14416 1-414 isoform P14416-2)": "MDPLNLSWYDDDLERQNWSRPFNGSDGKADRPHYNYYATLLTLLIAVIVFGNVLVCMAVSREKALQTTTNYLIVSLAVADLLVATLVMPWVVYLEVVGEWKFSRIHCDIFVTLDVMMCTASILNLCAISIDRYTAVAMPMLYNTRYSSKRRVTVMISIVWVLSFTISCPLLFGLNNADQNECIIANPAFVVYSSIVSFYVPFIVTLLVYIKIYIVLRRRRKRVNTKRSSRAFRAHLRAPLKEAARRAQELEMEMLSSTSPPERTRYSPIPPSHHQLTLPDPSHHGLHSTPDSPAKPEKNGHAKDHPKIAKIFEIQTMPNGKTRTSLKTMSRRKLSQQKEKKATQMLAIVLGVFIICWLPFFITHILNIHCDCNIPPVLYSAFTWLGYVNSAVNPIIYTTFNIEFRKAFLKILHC", "assay": "EFC-based cAMP secondary messenger assay, agonist mode", "format": "cell-based"}, "[2]": {"settings": "oral, 1 mg/kg, 1 mg/kg oral C(I), Mean ± SD, read-out: Plasma concentration of C(I)"}, "[3]": {"settings": "oral, 1 mg/kg, 1 mg/kg oral C(I), mean (n = 2), read-out: Plasma concentration of C(I)"}, "[4]": {"settings": "oral, 1 mg/kg, 1 mg/kg oral C(I), per animal, BLQ <0.5 ng/mL, read-out: Plasma concentration of C(I)"}, "[5]": {"settings": "oral, 3 mg/kg, 3 mg/kg oral C(I), Mean ± SD, read-out: Plasma concentration of C(I)"}, "[6]": {"settings": "oral, 3 mg/kg, 3 mg/kg oral C(I), per animal, BLQ <0.5 ng/mL, read-out: Plasma concentration of C(I)"}, "[7]": {"settings": "oral, 10 mg/kg, 10 mg/kg oral C(I), Mean ± SD, read-out: Plasma concentration of C(I)"}, "[8]": {"settings": "oral, 10 mg/kg, 10 mg/kg oral C(I), per animal, BLQ <0.5 ng/mL, read-out: Plasma concentration of C(I)"}, "[9]": {"settings": "po, 1 mg/kg, 1 mg/kg oral C(I), Mean ± SD"}, "[10]": {"settings": "po, 3 mg/kg, 3 mg/kg oral C(I), Mean ± SD"}, "[11]": {"settings": "po, 3 mg/kg, 3 mg/kg oral C(I), mean (n = 1)"}, "[12]": {"settings": "po, 3 mg/kg, 3 mg/kg oral C(I), per animal"}, "[13]": {"settings": "po, 10 mg/kg, 10 mg/kg oral C(I), Mean ± SD"}, "[14]": {"settings": "po, 10 mg/kg, 10 mg/kg oral C(I), mean (n = 2)"}, "[15]": {"settings": "po, 10 mg/kg, 10 mg/kg oral C(I), per animal"}}, "note": "Where two headings read alike, the source gives them in different places.", "data": [{"smiles": "CN(C)CCc1c[nH]c2cccc(OC(=O)c3ccc(Br)cc3)c12", "note": "[C(I)]", "values": [{"measurement": "MRT inf", "setting": "[1]; iv, 1 mg/kg, 1 mg/kg i.v. C(I), per animal", "result": 0.568, "unit": "h"}, {"measurement": "concentration at 0.25 h", "setting": "[1]; [2]", "result": "0.646 ± 0.251", "unit": "ng/mL"}, {"measurement": "concentration at 0.5 h", "setting": "[1]; [2]", "result": "0.877 ± 0.376", "unit": "ng/mL"}, {"measurement": "concentration at 1 h", "setting": "[1]; [3]", "result": 0.898, "unit": "ng/mL"}, {"measurement": "concentration at 1 h", "setting": "[1]; [4]", "result": 0.775, "unit": "ng/mL"}, {"measurement": "concentration at 2 h", "setting": "[1]; [3]", "result": 0.537, "unit": "ng/mL"}, {"measurement": "concentration at 2 h", "setting": "[1]; [4]", "result": 0.474, "unit": "ng/mL"}, {"measurement": "concentration at 4 h", "setting": "[1]; oral, 1 mg/kg, 1 mg/kg oral C(I), mean (n = 1), read-out: Plasma concentration of C(I)", "result": 0.352, "unit": "ng/mL"}, {"measurement": "concentration at 4 h", "setting": "[1]; [4]", "result": 0.352, "unit": "ng/mL"}, {"measurement": "concentration at 0.25 h", "setting": "[1]; [5]", "result": "2.03 ± 0.37", "unit": "ng/mL"}, {"measurement": "concentration at 0.25 h", "setting": "[1]; [6]", "result": 1.62, "unit": "ng/mL"}, {"measurement": "concentration at 0.5 h", "setting": "[1]; [5]", "result": "2.03 ± 0.112", "unit": "ng/mL"}, {"measurement": "concentration at 0.5 h", "setting": "[1]; [6]", "result": 1.95, "unit": "ng/mL"}, {"measurement": "concentration at 1 h", "setting": "[1]; [5]", "result": "1.54 ± 0.206", "unit": "ng/mL"}, {"measurement": "concentration at 1 h", "setting": "[1]; [6]", "result": 1.74, "unit": "ng/mL"}, {"measurement": "concentration at 2 h", "setting": "[1]; [5]", "result": "0.786 ± 0.127", "unit": "ng/mL"}, {"measurement": "concentration at 2 h", "setting": "[1]; [6]", "result": 0.932, "unit": "ng/mL"}, {"measurement": "concentration at 4 h", "setting": "[1]; [5]", "result": "0.907 ± 0.357", "unit": "ng/mL"}, {"measurement": "concentration at 6 h", "setting": "[1]; [5]", "result": "0.31 ± 0.0605", "unit": "ng/mL"}, {"measurement": "concentration at 6 h", "setting": "[1]; [6]", "result": 0.371, "unit": "ng/mL"}, {"measurement": "concentration at 0.25 h", "setting": "[1]; [7]", "result": "5.67 ± 1.77", "unit": "ng/mL"}, {"measurement": "concentration at 0.25 h", "setting": "[1]; [8]", "result": 7.2, "unit": "ng/mL"}, {"measurement": "concentration at 0.5 h", "setting": "[1]; [7]", "result": "8.14 ± 2.42", "unit": "ng/mL"}, {"measurement": "concentration at 0.5 h", "setting": "[1]; [8]", "result": 6.41, "unit": "ng/mL"}, {"measurement": "concentration at 1 h", "setting": "[1]; [7]", "result": "5.51 ± 1.85", "unit": "ng/mL"}, {"measurement": "concentration at 1 h", "setting": "[1]; [8]", "result": 3.79, "unit": "ng/mL"}, {"measurement": "concentration at 2 h", "setting": "[1]; [7]", "result": "2.59 ± 1.17", "unit": "ng/mL"}, {"measurement": "concentration at 4 h", "setting": "[1]; [7]", "result": "2.26 ± 0.673", "unit": "ng/mL"}, {"measurement": "concentration at 4 h", "setting": "[1]; [8]", "result": 1.71, "unit": "ng/mL"}, {"measurement": "concentration at 6 h", "setting": "[1]; [7]", "result": "0.89 ± 0.265", "unit": "ng/mL"}, {"measurement": "concentration at 6 h", "setting": "[1]; [8]", "result": 0.83, "unit": "ng/mL"}, {"measurement": "concentration at 8 h", "setting": "[1]; oral, 10 mg/kg, 10 mg/kg oral C(I), 8 h, Mean ± SD, read-out: Plasma concentration of C(I)", "result": "0.545 ± 0.481", "unit": "ng/mL"}, {"measurement": "AUC(0-t)", "setting": "[1]; [9]", "result": "1.34 ± 1.02", "unit": "ng·h/mL"}, {"measurement": "Cmax", "setting": "[1]; [9]", "result": "0.877 ± 0.376", "unit": "ng/mL"}, {"measurement": "Tmax", "setting": "[1]; [9]", "result": 0.5, "unit": "h"}, {"measurement": "Tmax", "setting": "[1]; po, 1 mg/kg, 1 mg/kg oral C(I), per animal", "result": 0.5, "unit": "h"}, {"measurement": "AUC(0-t)", "setting": "[1]; [10]", "result": "5.54 ± 0.33", "unit": "ng·h/mL"}, {"measurement": "Cmax", "setting": "[1]; [10]", "result": "2.15 ± 0.195", "unit": "ng/mL"}, {"measurement": "Tmax", "setting": "[1]; [10]", "result": "0.417 ± 0.144", "unit": "h"}, {"measurement": "AUC(0-inf)", "setting": "[1]; [11]", "result": 6.87, "unit": "ng·h/mL"}, {"measurement": "half-life", "setting": "[1]; [11]", "result": 3.01, "unit": "h"}, {"measurement": "MRT inf", "setting": "[1]; [11]", "result": 4.12, "unit": "h"}, {"measurement": "half-life", "setting": "[1]; po, 3 mg/kg, 3 mg/kg oral C(I), per animal, M43 estimate may not be accurate", "result": 3.01, "unit": "h"}, {"measurement": "AUC(0-inf)", "setting": "[1]; [12]", "result": 6.87, "unit": "ng·h/mL"}, {"measurement": "AUC(0-t)", "setting": "[1]; [12]", "result": 5.26, "unit": "ng·h/mL"}, {"measurement": "Cmax", "setting": "[1]; [12]", "result": 1.95, "unit": "ng/mL"}, {"measurement": "MRT inf", "setting": "[1]; [12]", "result": 4.12, "unit": "h"}, {"measurement": "Tmax", "setting": "[1]; [12]", "result": 0.5, "unit": "h"}, {"measurement": "AUC(0-t)", "setting": "[1]; [13]", "result": "18.7 ± 4.25", "unit": "ng·h/mL"}, {"measurement": "Cmax", "setting": "[1]; [13]", "result": "8.4 ± 2.17", "unit": "ng/mL"}, {"measurement": "Tmax", "setting": "[1]; [13]", "result": "0.417 ± 0.144", "unit": "h"}, {"measurement": "AUC(0-inf)", "setting": "[1]; [14]", "result": 20.2, "unit": "ng·h/mL"}, {"measurement": "half-life", "setting": "[1]; [14]", "result": 1.31, "unit": "h"}, {"measurement": "MRT inf", "setting": "[1]; [14]", "result": 2.53, "unit": "h"}, {"measurement": "AUC(0-inf)", "setting": "[1]; [15]", "result": 16.3, "unit": "ng·h/mL"}, {"measurement": "AUC(0-t)", "setting": "[1]; [15]", "result": 15.8, "unit": "ng·h/mL"}, {"measurement": "half-life", "setting": "[1]; [15]", "result": 1.45, "unit": "h"}, {"measurement": "Cmax", "setting": "[1]; [15]", "result": 7.2, "unit": "ng/mL"}, {"measurement": "MRT inf", "setting": "[1]; [15]", "result": 2.66, "unit": "h"}, {"measurement": "Tmax", "setting": "[1]; [15]", "result": 0.25, "unit": "h"}, {"measurement": "EC50", "setting": "HTR3A (5-HT3A)", "result": "> 100", "unit": "µM"}, {"measurement": "EC50", "setting": "DRD2S", "result": 83.4, "unit": "µM"}]}]}
